Consider 15 molecules from patent US20080096244A1, “D-AMINOACYLASE” (DAIICHI PURE CHEMICALS CO., LTD., priority 2002, published 2008).

Data set [1] has as its system D-aminoacylase from the Defluvibacter sp. A131-3 strain. Nature of the data set: Effects of metal ions on D-aminoacylase activity (D-valine produced, HPLC). It is filed as biochemical. The following applies: for Relative activity (%): metal ion 1.0 mmol/L, 0.5 mol/L N-acetyl-D-valine, enzyme 500 U, 40° C., 1 day, no metal addition = 100%; for Effects of metal ions on activity: each at 1 mmol/L.

For data set [2], the system named is D-aminoacylase from Defluvibacter sp. A131-3 strain. Nature of the data set: Production of D-valine by resolution of N-acetyl-D,L-valine (HPLC). It counts as biochemical. The following applies: 15% aqueous N-acetyl-D,L-valine, enzyme 200 U/mL, 40° C. The procedure:
It was then confirmed that the strains that had been selected by the chromogenic process show rapid reduction of the N-acetyl-D-valine and increase of the D-valine in an amount corresponding to the reduction of the N-acetyl-D-valine.
By using 15% aqueous solution of N-acetyl-D,L-valine as a substrate, D-aminoacylase from Defluvibacter sp. A131-3 strain was added with in an amount of 200 U per 1 ml of the aqueous solution of the substrate, and the reaction was allowed to proceed at 40° C. for 3 days. The rate of D-valine production by resolution from the N-acetyl-D,L-valine was measured by the HPLC method described in Example 1 (2).

The subject of data set [3] is D-aminoacylase from the Defluvibacter sp. A131-3 strain. Description: Substrate specificity, acylase activity measurement using D-/L-amino acid oxidase chromogenic reagent. It counts as biochemical. The source says:
(4) Substrate specificity: Substrate specificity of the acylase of the present invention was confirmed by using the following N-acetyl-D-amino acids and N-acetyl-L-amino acids as the substrate and combining therewith the D-amino acid oxidase or the L-amino acid oxidase. The acylase of the present invention acts on the following N-acetyl-D-amino acids but not on the N-acetyl-L-amino acids.
In the measurement of the reactivity with the L-amino acids, an oxidase for L-amino acids is used instead of the D-amino acid oxidase in the activity measurement as will be described below.
4. Substrate specificity was determined by an activity measurement method using the chromogenic reagents for the D- and L-amino acid oxidases as described above.

For data set [4] the test system is unchanged. Nature of the data set: Effects of inhibitor on D-aminoacylase activity (D-valine produced, HPLC). It counts as biochemical. To be noted: for Effects of inhibitors on activity: each at 5 mmol/L; for Relative activity (%): inhibitor 5 mmol/L, 0.5 mol/L N-acetyl-D-valine, enzyme 500 U, 40° C., 1 day, no addition of inhibitor = 100%. The procedure:
The detection was conducted at 230 nm. The column was analyzed at a temperature of 30° C. The enzymatic activity was evaluated in terms of the ratio between the area of the acetyl compound and the free compound, and the resolution rate was expressed as a […]

Data set [5] can be described thus: Optimal temperature of the enzyme. It is filed as biochemical, Defluvibacter sp. A131-3. To be noted: pH 8, 30 minutes.
For data set [6] the following is noted: 30° C., 1 day.
Data set [7] is described as follows: Isoelectric point by two-dimensional electrophoresis for denatured system. To be noted: calculated from mobility of 2D-protein isoelectric point markers. It counts as physicochemical, Defluvibacter sp. A131-3. The procedure:
(3) Isoelectric point: Isoelectric point is measured on the basis of two-dimensional electrophoresis process by two-dimensional electrophoresis for denatured system (using IPG tube gel “Daiichi” 4-10 and PAG Large “Daiichi” 2D-10/20 manufactured by Daiichi Pure Chemicals Co., Ltd.). The pI value of 5.3 is calculated from mobility of 2D-protein isoelectric point markers (2D-protein isoelectric point markers “Daiichi” manufactured by Daiichi Pure Chemicals Co., Ltd.).
3. Protein isoelectric point was measured on the bases of two-dimensional electrophoresis process by two-dimensional electrophoresis for denatured system (using IPG tube gel “Daiichi” 4-10 and PAG Large “Daiichi” 2D-10/20 manufactured by Daiichi Pure Chemicals Co., Ltd.). The pI value of the enzyme of the present invention calculated from the mobility of the pI values 5.1, 5.2, 5.3, 5.4, 5.7, 6.0, 6.2, 6.4, 6.5, 6.7, 6.8, 7.0, and 7.1 of the 2D-protein isoelectric point markers (2D-protein isoelectric point markers “Daiichi” manufactured by Daiichi Pure Chemicals Co., Ltd.) was 5.3.

`[Cl-].[Na+]` [Sodium chloride, sodium chloride]: the “Relative activity (%)” value in data set [1] came to 99%. In the case of `CC(=O)N[C@H](C(=O)O)C(C)C` [N-Ac-L-Val, N-acetyl-L-valine], the “Decomposition of the L-form by the enzyme” value in data set [2] was “not decomposed at all”. Further, the “Substrate specificity: whether the enzyme acts on the substrate” value in data set [3] (D- or L-amino acid oxidase detection) is recorded as “does not act on”. For the same molecule, the “Relative activity (% in relation to Met)” value in data set [3] (activity of N-acetyl-D-methionine = 100, 100 mmol/L substrate solution, pH 8, 37° C., 30 minutes) turned out to be 0%. For the same molecule, the “Relative activity (% in relation to Val)” value in data set [3] (activity of N-acetyl-D-valine = 100, 100 mmol/L substrate solution, pH 8, 37° C., 30 minutes) was 0%. Turning to `[Cl-].[Cl-].[Zn+2]` [Zinc chloride, zinc chloride], in data set [1], the “Effects of metal ions on activity” value is “inhibited” and the “Relative activity (%)” value was 31%.

With `O.O.O.O.O.O.[Cl][Ni][Cl]` [Nickel chloride, nickel chloride hexahydrate], in data set [1], the “Effects of metal ions on activity” value is listed as “inhibited” and the “Relative activity (%)” value came out at 20%.

As to `O.O.O.O.O.O.[Cl-].[Cl-].[Co+2]` [Cobalt (II) chloride, cobalt (II) chloride hexahydrate], in data set [1], the “Effects of metal ions on activity” value is on record as “inhibited” and the “Relative activity (%)” value is listed as 27%. As to `OCCS` [2-mercaptoethanol], the “Effects of inhibitors on activity” value in data set [4] is listed as “inhibited”. For `NC(=O)CI` [Iodacetamide, iodacetamide], the “Relative activity (%)” value in data set [4] came to 107%. Take `N[C@@H](CS)C(=O)O` [L-cysteine]: in data set [4], the “Effects of inhibitors on activity” value is recorded as “inhibited”.

As to `CCN1C(=O)C=CC1=O` [N-ethylmaleimide], the “Relative activity (%)” value in data set [4] amounted to 100%. Turning to `c1cnc2c(c1)ccc1cccnc12` [O-phenanthroline, o-phenanthroline], in data set [4], the “Effects of inhibitors on activity” value is recorded as “inhibited” and the “Relative activity (%)” value is 53%. Moreover, the “Relative activity (%)” value in data set [4] (listed as o-phenanthroline) was “less than 60%”.

As to `O=C(O)CN(CCN(CC(=O)O)CC(=O)O)CC(=O)O` [Ethylenediamine tetraacetic acid, ethylenediamine tetraacetic acid], the “Relative activity (%)” value in data set [4] worked out at 112%.

For iron (III) chloride hexahydrate, in data set [1], the “Relative activity (%)” value is listed as 88%. For `O[C@H](CS)[C@H](O)CS` (racemic) [Dithiothreitol, dithiothreitol], in data set [4], the “Effects of inhibitors on activity” value is reported as “inhibited” and the “Relative activity (%)” value was 38%.

Take `[Na+].[Na+].[O]=[Mo](=[O])([O-])[O-]` [Sodium molybdate, sodium molybdate]: in data set [1], the “Relative activity (%)” value is 105%.

B1: the enzyme of the present invention: D-aminoacylase from the Defluvibacter sp. A131-3 strain obtained in Example 3; amino acid sequence of SEQ ID NO. 2 (protein)
chain: MAKSFDLVIRNGRVVDPETGHDAIADVAVSGGQIVAVGPSLGAGKREIDATGLVVSPGFIDLHAHGQSIPADRMQAFDGVTTALELEVGSLPVARWYEQQQAGGRVLNYGTAAAWIFARKAVMIGMELDGRLAPIEMMGAGSDDMRWSVDAATAPQTDDIVRLTRQALEEGALGIGIPHGYAAGAGVKEMTRICELAAEFDRPTYTHIPYMSNIDPRSSVEAYVQLIGLAGATGAHMHICHLNSTSLRDVEDAARLIAKAQAQGLPITTEAYPYGTGSTVMSARFFIDSDFAERTGTGYDAIQVVSSGKRFENRDELVAARAETPEALVLWHYLDTDNPHDQRLLDVSVMYPGGAIASDAVPWSNPDGTLYTGEEWPLPADKTSHPRSAGTYTRFLAQWVREREAVPLVEAIAKCALIPAQIVERCSDVFRRKGRLQPGCDADIVIFDLESVQDRSTFEDMHLAADGMVHVLVNGEAVIANGELVRDARSGRAIRSTPR
modifications: Defluvibacter sp.A131-3
Molecule B1 showed an Optimal temperature in data set [5] of 37 °C. For the same molecule, in data set [6], the “Residual activity at pH 6 or pH 11” value is on record as “not 0%” and the “pH at which the enzyme is most stable” value is given as about 9 pH. In data set [7], the “Isoelectric point (pI value)” value is 5.3.
